Columns and labels:
cultured human islets = cultured human islets exposed to FK506; cited from earlier work
NFATc1 [1] = test: ChIP of NFATc1 on isolated human islets; format: cell-based; parameters: NFATc1 association at CCNA2, CCND2 and FOXM1 promoter sites: dose or concentration left out as unconfirmed
Method: Islets from P20 C57/BL6 mice were isolated (as above) and fixed with 1% formaldehyde for 10 minutes at room temperature. Cross-linking was quenched by the addition of 0.125 M glycine and islets were washed in DPBS. ChIPs were then performed using the EZ-Magna ChIP™ G Chromatin Immunoprecipitation Kit (Millipore), following the manufacturer's protocol. Briefly, following cell and nuclear lysis, islets were sonicated to shear chromatin using a Bioruptor Sonicator (Diagenode) at maximum power; set for 15 seconds ON followed by 45 seconds OFF for a total time of 10 minutes. Precleared chromatin from 200-300 islets was used for each ChIP sample with incubation of 1 to 10 ug of the appropriate antibodies overnight at 4° C. Before IP, 1/10 of the extract was saved for use as the input. […] Resulting chromatin was then amplified using the GenomePlex WGA4 Whole Genome Amplification Kit (Sigma) and quantified using nanodrop. Equal amounts of chromatin DNA were then analyzed by quantitative PCR in the ABI Prism 7500 detection system (Applied Biosystems) using Power SYBR Green PCR Master Mix (Applied Biosystems). […]
Human islet studies. […] Islets were immunostained for insulin and BrdU and β-cell proliferation rate was determined by quantifying the percentage of insulin+ and BrdU^+ cells. A minimum of 50 islets and over 2000 β-cells were scored per condition.

cultured P10 islets = test: qRT-PCR of mRNA in cultured P10 mouse islets exposed to glucokinase activator with or without FK506; format: cell-based
Method: (§1) Quantitative Real-time RT-PCR. Mouse islets were isolated by standard collagenase pancreatic perfusion as previously described (Heit et al. (2006a), supra). Total islet mRNA was then isolated using the RNeasy Microkit (QIAGEN) according to the manufacturer's instructions and RNA amount and purity were assessed by Nanodrop spectrophotometry. Any remaining contaminant DNA was removed by treating samples with 1 unit of RNAse-free DNAse (Fermentas). Next, cDNA was prepared from 750 ng of total islet RNA using the RETROscript kit (Ambion) and analyzed by quantitative real-time PCR (QPCR) using TaqMan Universal PCR Master Mix (ABI) and the ABI Prism 7500 detection system. For culture studies, islets harvested from mice of the indicated genotype were placed in standard media (RPMI 1640 with 4.5 mM glucose containing 10% FBS and 1% pen/strep) at 37° C. and 5% CO2. For some experiments islets were maintained in media containing vehicle (DMSO), glucokinase activator (GKA) R0-28-1675 (10 μM; Axon Ligands) and/or FK506 (10 μM; LC Laboratories) for 72 hours, with media changes every 24 hours. Additionally, β-cells from MIP-EGFP islets were isolated using fluorescence-activated cell sorting as previously described (Sugiyama, T., et al. (2007). Conserved markers of fetal pancreatic epithelium permit prospective isolation of islet progenitor cells by FACS. Proc. Natl. Acad. Sci. U.S.A 104, 175-180) and processed as above for analysis by QPCR. Each quantitative analysis was performed in triplicate and islets from 3 to 6 mice of each genotype were independently tested. Data are normalized to β-actin and results are expressed as the mean±S.E.M.

[2] = test system: islets isolated from WT, P20 mice; test: qRT-PCR of mRNA in cultured neonatal mouse islets exposed to FK506; format: cell-based
Method: as §1

neonatal human islets = test: BrdU incorporation, β-cell proliferation in human islets; format: cell-based; details: islets of donor, FK506 vs vehicle (FIG. 6G-H)
Method: Human islet studies. Human islet samples were obtained from healthy, non-diabetic organ donors deceased due to acute traumatic or anoxic death and offered by NDR1 (National Diseases Resource Interchange). Islets were isolated by Bottino, R. at the University of Pittsburg, or by Bryant, S, and Thompson A. at the University of Alabama, Birmingham. […] After isolation, islets were shipped directly to our laboratory and were transferred to fresh islet culture medium (RPMI 1640 with 4.5 mM glucose containing 10% FBS and 1% pen/strep). As with mouse islets, islet samples were split and treated with either vehicle (DMSO) or FK506 ([…], LC laboratories) for 72 hours, with medium changes every 24 hours. Islets were then handpicked with dithizone staining and aliquots of 1000 IEQ were spun down and snap frozen for mRNA isolation or crosslinked as described above for ChIP studies. BrdU analysis was performed on the donor batch by treating islets with 50 uM BrdU and chasing for 24 hrs. Afterwards, islets were placed in 2% agarose and processed within paraffin blocks as described above. Islets were immunostained for insulin and BrdU and β-cell proliferation rate was determined by quantifying the percentage of insulin+ and BrdU^+ cells. A minimum of 50 islets and over 2000 β-cells were scored per condition.

NFATc1 [3] = test: Chromatin immunoprecipitation (ChIP) of NFATc1 in mouse islets; format: cell-based
Method: Islets from P20 C57/BL6 mice were isolated (as above) and fixed with 1% formaldehyde for 10 minutes at room temperature. Cross-linking was quenched by the addition of 0.125 M glycine and islets were washed in DPBS. ChIPs were then performed using the EZ-Magna ChIP™ G Chromatin Immunoprecipitation Kit (Millipore), following the manufacturer's protocol. Briefly, following cell and nuclear lysis, islets were sonicated to shear chromatin using a Bioruptor Sonicator (Diagenode) at maximum power; set for 15 seconds ON followed by 45 seconds OFF for a total time of 10 minutes. Precleared chromatin from 200-300 islets was used for each ChIP sample with incubation of 1 to 10 ug of the appropriate antibodies overnight at 4° C. Before IP, 1/10 of the extract was saved for use as the input. Antibodies used for IP were mouse monoclonal anti-RNA Polymerase (1 ug, Millipore, 05-623B), rabbit anti-IgG (1 ug, Santa Cruz, sc-2027), and rabbit anti-NFATc1 (5 ug, Imgenex, #IMG-5101A). Resulting chromatin was then amplified using the GenomePlex WGA4 Whole Genome Amplification Kit (Sigma) and quantified using nanodrop. Equal amounts of chromatin DNA were then analyzed by quantitative PCR in the ABI Prism 7500 detection system (Applied Biosystems) using Power SYBR Green PCR Master Mix (Applied Biosystems). […]

[4] = cited from earlier work
human islets = test: qRT-PCR of mRNA in cultured human islets exposed to FK506; format: cell-based; details: 72 hr
Method: Quantitative Real-time RT-PCR. Mouse islets were isolated by standard collagenase pancreatic perfusion as previously described (Heit et al. (2006a), supra). Total islet mRNA was then isolated using the RNeasy Microkit (QIAGEN) according to the manufacturer's instructions and RNA amount and purity were assessed by Nanodrop spectrophotometry. Any remaining contaminant DNA was removed by treating samples with 1 unit of RNAse-free DNAse (Fermentas). Next, cDNA was prepared from 750 ng of total islet RNA using the RETROscript kit (Ambion) and analyzed by quantitative real-time PCR (QPCR) using TaqMan Universal PCR Master Mix (ABI) and the ABI Prism 7500 detection system. Human islet studies. Human islet samples were obtained from healthy, non-diabetic organ donors deceased due to acute traumatic or anoxic death and offered by NDR1 (National Diseases Resource Interchange). Islets were isolated by Bottino, R. at the University of Pittsburg, or by Bryant, S, and Thompson A. at the University of Alabama, Birmingham. […] After isolation, islets were shipped directly to our laboratory and were transferred to fresh islet culture medium (RPMI 1640 with 4.5 mM glucose containing 10% FBS and 1% pen/strep). As with mouse islets, islet samples were split and treated with either vehicle (DMSO) or FK506 ([…], LC laboratories) for 72 hours, with medium changes every 24 hours. Islets were then handpicked with dithizone staining and aliquots of 1000 IEQ were spun down and snap frozen for mRNA isolation or crosslinked as described above for ChIP studies. BrdU analysis was performed on the donor batch by treating islets with 50 uM BrdU and chasing for 24 hrs. Afterwards, islets were placed in 2% agarose and processed within paraffin blocks as described above. Islets were immunostained for insulin and BrdU and β-cell proliferation rate was determined by quantifying the percentage of insulin+ and BrdU^+ cells. A minimum of 50 islets and over 2000 β-cells were scored per condition.

[5] = WT P20 mouse islets, FK506 10 μM, 72 hr, vs vehicle (FIG. 3F)
[6] = FK506 10 μM, vs vehicle (FIG. 4A)

C=CC[C@@H]1/C=C(\C)C[C@H](C)C[C@H](OC)[C@H]2O[C@@](O)(C(=O)C(=O)N3CCCC[C@H]3C(=O)O[C@H](/C(C)=C/[C@@H]3CC[C@@H](O)[C@H](OC)C3)[C@H](C)[C@@H](O)CC1=O)[C@H](C)C[C@@H]2OC [FK506, tacrolimus]
DCG numbers (cultured human islets): reduced | insulin secretion (cultured human islets): impaired | NFATc1 binding at CHGA, CHGB, IAPP, and IA2 sites (NFATc1 [1]; human islets, FK506 10 μM, 24 hr (FIG. 4B)): consistently reduced | NFATc1 association at CCNA2, CCND2 and FOXM1 promoter sites (NFATc1 [1]; neonatal human islets): FK506-sensitive | GKA induction of CcnA2, CcnD2 and FoxM1 mRNAs (cultured P10 islets; P10 islets, simultaneous exposure to FK506, 10 μM each, 72 hr (FIG. 7D)): attenuated or blocked | GKA elevation of Insulin 2 (Ins2) levels (cultured P10 islets; WT P10 islets, GKA+FK506, 10 μM each, 72 hr (FIG. 7B)): blunted | GKA induction of NFATc1 mRNA (cultured P10 islets; WT P10 islets, simultaneous exposure to FK506 and GKA, 10 μM each, 72 hr (FIG. 7A)): blocked | GKA increase of ChgA, ChgB, IAPP, and IA2 mRNAs (cultured P10 islets; neonatal P10 islets, GKA+FK506, 10 μM each, 72 hr (FIG. 7C)): eliminated or significantly reduced | levels of Hnf4a mRNA [2, 5]: remained unchanged | levels of Ins1, Ins2, ChgA, ChgB, IAPP and IA2 mRNA [2, 5]: significantly reduced | levels of CcnA2, CcnD2 and FoxM1 mRNAs ([2]; neonatal WT mouse islets, FK506, 72 hr, vs vehicle (FIG. 5E)): significantly decreased | reduction of β-cell BrdU incorporation (neonatal human islets): ~3 fold | NFATc1 binding at ChgA, ChgB and IA2 promoters (NFATc1 [3]; WT P20 mouse islets, FK506 24 hr (FIG. 3K)): reduced to levels comparable to IgG controls | NFATc1 binding at CcnD2, FoxM1 and CcnA2 promoter sites (NFATc1 [3]; WT neonatal mouse islets, FK506 24 hr (FIG. 5J)): consistently reduced NFATc1 binding to background levels | incidence of diabetes mellitus ([4]; patients administered calcineurin inhibitors): high incidence | patients developing diabetes mellitus ([4]; patients requiring immunosuppression with calcineurin inhibitors): 10-30% | CCNA2, CCND2 and FOXM1 mRNA levels (human islets; vs vehicle (FIG. 6F)): significantly decreased | islet levels of mRNA encoding HNF4a (human islets; [6]): unaffected | mRNAs encoding INS, CHGA, CHGB, IAPP, and IA2 (human islets; [6]): reduction
